Experimental findings from ChEMBL document CHEMBL4196088, “Induction of cell killing and autophagy by amphiphilic pyrrolidine derivatives on human pancreatic cancer cells” (Eur J Med Chem, 2018) are described below.

SMILES strings stand for the structures. Activity calls are given as the source filed them. The rule behind the calls is not given here.

For data set [1], the system named is MIA PaCa-2. As to the kind of experiment: Induction of apoptosis in human MIAPaCa2 cells assessed as live cells at 20 uM after 24 hrs by Annexin V-FITC/propidium iodide staining based flow cytometry (reference value: 86.79%). In kind it is functional. Background: Flow cytometry measures light scatter and fluorescence of single cells or particles in a stream.

Data set [2] relates to MIA PaCa-2. As to the kind of experiment: Induction of apoptosis in human MIAPaCa2 cells assessed as live cells at 20 uM after 48 hrs by Annexin V-FITC/propidium iodide staining based flow cytometry (reference value: 86.79%). In kind it is functional.
In data set [3] the test system is MIA PaCa-2. As to the kind of experiment: Induction of apoptosis in human MIAPaCa2 cells assessed as increase in cleaved PARP protein expression at 20 uM after 24 to 48 hrs by Western blot analysis. The class given is functional, cell-based. Background: A western blot detects proteins with antibodies after separation by electrophoresis.
Data set [4] relates to BXPC-3. As to the kind of experiment: Induction of autophagy in human BxPC3 cells assessed as increase in LC3-2 protein expression at 20 uM after 24 to 48 hrs by Western blot analysis. In kind it is functional, cell-based.
Data set [5] has as its system MIA PaCa-2. As to the kind of experiment: Induction of apoptosis in human MIAPaCa2 cells assessed as late apoptotic cells at 20 uM after 48 hrs by Annexin V-FITC/propidium iodide staining based flow cytometry (reference value: 7.4%). In kind it is functional.
Data set [6] deals with PANC-1. As to the kind of experiment: Growth inhibition of human PANC1 cells after 72 hrs by XTT assay. The class given is functional, cell-based. Conditions: PANC-1, 72 h. A general note: Tetrazolium dyes change colour on reduction, which living cells bring about.
In data set [7] the test system is PANC-1. In words: Induction of apoptosis in human PANC1 cells assessed as accumulation at sub-G0/G1 phase at 20 uM after 72 hrs by propidium iodide staining based flow cytometry (reference value: 1.6 to 3.2%). In kind it is functional.
For data set [8], the system named is PANC-1. As to the kind of experiment: Induction of apoptosis in human PANC1 cells assessed as accumulation at sub-G0/G1 phase at 10 uM after 72 hrs by propidium iodide staining based flow cytometry (reference value: 1.6 to 3.2%). In kind it is functional.
The subject of data set [9] is PANC-1. In words: Induction of apoptosis in human PANC1 cells assessed as accumulation at sub-G0/G1 phase at 10 uM after 48 hrs by propidium iodide staining based flow cytometry (reference value: 0.2 to 2.9%). In kind it is functional.
A short description of data set [10]: Induction of apoptosis in HPNE cells at 5 to 40 uM after 24 to 72 hrs by Annexin V/7-AAD staining based flow cytometry. Conditions: human. In kind it is cell-based.
The subject of data set [11] is MIA PaCa-2. As to the kind of experiment: Induction of apoptosis in human MIAPaCa2 cells assessed as necrotic cells at 20 uM after 24 hrs by Annexin V-FITC/propidium iodide staining based flow cytometry (reference value: 0.63%). The class given is functional.
Data set [12] relates to PANC-1. In words: Induction of apoptosis in human PANC1 cells assessed as accumulation at sub-G0/G1 phase at 20 uM after 48 hrs by propidium iodide staining based flow cytometry (reference value: 0.2 to 2.9%). In kind it is functional.
Another data set concerns Fibroblast. As to the kind of experiment: Induction of apoptosis in human primary fibroblasts at 5 to 40 uM after 24 to 72 hrs by Annexin V/7-AAD staining based flow cytometry. In kind it is cell-based.
For data set [13], the system named is MIA PaCa-2. As to the kind of experiment: Induction of apoptosis in human MIAPaCa2 cells assessed as early apoptotic cells at 20 uM after 48 hrs by Annexin V-FITC/propidium iodide staining based flow cytometry (reference value: 5.16%). The class given is functional.
The test system of data set [14] is PK9. In words: Induction of apoptosis in human PK9 cells at 5 to 40 uM after 24 to 72 hrs by Annexin V/7-AAD staining based flow cytometry. The class given is functional, cell-based.
Data set [15] has as its system MIA PaCa-2. As to the kind of experiment: Induction of apoptosis in human MIAPaCa2 cells assessed as late apoptotic cells at 20 uM after 24 hrs by Annexin V-FITC/propidium iodide staining based flow cytometry (reference value: 7.4%). The class given is functional.
In data set [16] the test system is MIA PaCa-2. In words: Induction of autophagy in human MIAPaCa2 cells assessed as increase in LC3-2 protein expression at 20 uM after 24 to 48 hrs by Western blot analysis. The class given is functional, cell-based.
Data set [17] concerns BXPC-3. In words: Induction of apoptosis in human BxPC3 cells assessed as increase in cleaved PARP protein expression at 20 uM after 24 to 48 hrs by Western blot analysis. The class given is functional, cell-based.
In data set [18] the test system is PANC-1. As to the kind of experiment: Induction of apoptosis in human PANC1 cells assessed as accumulation at sub-G0/G1 phase at 10 uM after 24 hrs by propidium iodide staining based flow cytometry (reference value: 0.6 to 0.7%). In kind it is functional.
The subject of data set [19] is MIA PaCa-2. In words: Induction of apoptosis in human MIAPaCa2 cells assessed as necrotic cells at 20 uM after 48 hrs by Annexin V-FITC/propidium iodide staining based flow cytometry (reference value: 0.63%). The class given is functional.
Data set [20] relates to BXPC-3. In words: Growth inhibition of human BxPC3 cells after 72 hrs by XTT assay. The following applies: BXPC-3, 72 h. In kind it is functional, cell-based.
For data set [21], the system named is PANC-1. In words: Induction of apoptosis in human PANC1 cells assessed as accumulation at sub-G0/G1 phase at 20 uM after 24 hrs by propidium iodide staining based flow cytometry (reference value: 0.6 to 0.7%). The class given is functional.
Data set [22] relates to MIA PaCa-2. In words: Induction of apoptosis in human MIAPaCa2 cells assessed as early apoptotic cells at 20 uM after 24 hrs by Annexin V-FITC/propidium iodide staining based flow cytometry (reference value: 5.16%). In kind it is functional.
Data set [23] relates to PK9. In words: Antiproliferative activity against human PK9 cells. The class given is functional, cell-based.
The test system of data set [24] is MIA PaCa-2. As to the kind of experiment: Antiproliferative activity against human MIAPaCa2 cells. In kind it is functional, cell-based.
A further data set concerns NCI-H460. In words: Growth inhibition of human NCI-H460 cells after 72 hrs. Conditions: NCI-H460, 72 h. The class given is functional, cell-based.
The subject of another data set is ACHN. As to the kind of experiment: Growth inhibition of human ACHN cells after 72 hrs. In kind it is functional, cell-based.
The subject of another data set is HeLa. In words: Growth inhibition of human HeLa cells after 72 hrs. In kind it is functional, cell-based.
A further data set deals with Jurkat. As to the kind of experiment: Growth inhibition of human Jurkat cells after 72 hrs. In kind it is functional, cell-based.

For the compound `CCCCCCCC/C=C\CCCCCCCCOC[C@@H]1CCCN1C(=O)[C@@H]1CCCN1.Cl`, the Activity in the data set with MIA PaCa-2 [1] worked out at 83.47%; with MIA PaCa-2 [2] it was 81.02%; in the data set with MIA PaCa-2 [5], 7.94%; in the data set on PANC-1 [7] it was 74.9%; with PANC-1 [8] it was 56.3%; with PANC-1 [9], 12.3%. For the same compound, the Activity result in data set [10] is listed as “Toxic”; in the data set with MIA PaCa-2 [11] it was 1.1%; in the data set with PANC-1 [12] it was 21.3%; in the data set on Fibroblast, “Toxic”; with MIA PaCa-2 [13] it was 10.86%; in the data set on MIA PaCa-2 [15], 8.64%. The Activity in the data set with PANC-1 [18] came to 2.6%; in the data set on MIA PaCa-2 [19], 0.16%; with PANC-1 [21] it was 4.4%; with MIA PaCa-2 [22] it was 6.78%. Also, the result with MIA PaCa-2 [3], in the data set with BXPC-3 [4], with MIA PaCa-2 [16] and in the data set on BXPC-3 [17] was inactive. The IC50 turned out to be 5 µM in the data set on PANC-1 [6] and 4.3 µM in the data set with BXPC-3 [20]. Also, the result in the data set with PK9 [14] was Active.

As for `CCCCCCCCCCCCc1cn(CC[C@H]2NC[C@@H](O)[C@H]2O)nn1`, the IC50 with PK9 [23] and in the data set on MIA PaCa-2 [24] was 14 to 45 µM each time.

Take `CCCCCCCC/C=C\CCCCCCCCOC[C@H]1NC[C@H](O)[C@@H]1O`: the 50% inhibitory concentration (IC50) was found to be 9 µM with NCI-H460, 3 µM with ACHN, 8 µM in the data set on HeLa and 7 µM in the data set with Jurkat.

As to `CCCCCCCCCCCCc1cn(C[C@H]2NC[C@H](O)[C@@H]2O)nn1`, the 50% inhibitory concentration (IC50) in the data set with PK9 [23] and with MIA PaCa-2 [24] was 14 to 45 µM throughout.

For the compound `Cl.NCC(=O)N1CCC[C@H]1COCCCCCCCCC/C=C/c1ccc(-c2ccccc2)cc1`, the IC50 in the data set on PANC-1 [6] came out at 6.3 µM; in the data set with BXPC-3 [20], 7 µM. Moreover, the Activity in the data set on PANC-1 [7] was 30.5%; in the data set on PANC-1 [8], 35.8%; with PANC-1 [9], 16.6%; in [10], “Toxic”; in the data set with PANC-1 [12], 13.3%; with Fibroblast it was “Toxic”. Besides, the values for the Activity in the data set on PANC-1 [18] and in the data set on PANC-1 [21] were 2% and 1.6%, respectively. In addition, in the data set with PK9 [14], the result was Active.

For the compound `CCCCCCCCCCCCc1cn(C[C@@H]2N[C@@H](C)[C@@H](O)[C@H]2O)nn1`, the IC50 in the data set with PK9 [23] and with MIA PaCa-2 [24] was 14 to 45 µM each time.

One may read the IC50 as the concentration at which inhibition is half-maximal. Low values mean greater potency, high ones weaker potency.
